Some test systems named below: A549 NSCLC; DU-145 prostate; NCI-H23 lung; NCI-H522 lung; OVCAR-4 ovarian; RPMI-8226 leukemia; SF-539 CNS; SK-MEL-2 melanoma; SN12C renal; SW-620 colon.
Common to all, as to test: growth of human tumour cells (NCI), 48 h

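Results reflect a 48-hour exposure of cells in 96-well plates to compound at five concentrations. TGI marks complete inhibition of growth.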

As to `N#Cc1c2c(c(Nc3ccc(Cl)cc3)n3c1nc1ccccc13)CCCC2`, the TGI is more than 100 µM in the test with A549 NSCLC; more than 100 µM with DU-145 prostate; more than 100 µM with NCI-H23 lung; more than 100 µM with NCI-H522 lung; more than 96.6 µM in the test on OVCAR-4 ovarian; 36.1 µM in the test on RPMI-8226 leukemia. The TGI with SF-539 CNS, in the test on SK-MEL-2 melanoma, with SN12C renal and in the test on SW-620 colon was more than 100 µM in each case.
On to `CN1Cc2c(ccc3c2OCO3)[C@@H]2[C@H](O)Cc3cc4c(cc3[C@@H]21)OCO4`, for which the TGI with A549 NSCLC is more than 100 µM; with DU-145 prostate, more than 30.6 µM; with NCI-H23 lung it was 12.8 µM; in the test on NCI-H522 lung it was 14.6 µM; with OVCAR-4 ovarian it was more than 100 µM; in the test with RPMI-8226 leukemia, more than 37.4 µM. Moreover, the TGI in the test with SF-539 CNS was 4.6 µM; with SK-MEL-2 melanoma it was more than 27.1 µM; in the test on SN12C renal, more than 39.7 µM; in the test on SW-620 colon, more than 100 µM.
Take `O=C1c2sccc2C(=O)c2c(CO)csc21`: the TGI in the test with A549 NSCLC is 6.7 µM; in the test with DU-145 prostate, 9.37 µM; in the test with NCI-H23 lung, 5.95 µM; in the test with NCI-H522 lung, 13.6 µM; in the test on OVCAR-4 ovarian, 9.46 µM; in the test with RPMI-8226 leukemia, more than 100 µM. Also, the TGI was 14.8 µM with SF-539 CNS, 8.63 µM with SK-MEL-2 melanoma, 22.4 µM with SN12C renal and more than 86.5 µM in the test on SW-620 colon.
With `CCCCCCCCCCCCCCCC(=O)OCC(COP(=O)(O)OCCNC(=O)CCSSc1ccccn1)OC(=O)CCCCCCCCCCCCCCC` (stereo not given), the TGI with A549 NSCLC, in the test on DU-145 prostate, with NCI-H23 lung, in the test with NCI-H522 lung, in the test with OVCAR-4 ovarian and with RPMI-8226 leukemia was more than 100 µM each time. Moreover, the TGI with SF-539 CNS, in the test with SK-MEL-2 melanoma, in the test on SN12C renal and in the test with SW-620 colon was more than 100 µM throughout.
As for `CNC(=O)N(C)C(=O)c1ccccc1C(=O)N(C)C(=O)NC`, the TGI in the test with A549 NSCLC, with DU-145 prostate, in the test on NCI-H23 lung, with NCI-H522 lung, in the test with OVCAR-4 ovarian and in the test with RPMI-8226 leukemia was more than 10 µM each time. The TGI in the test with SF-539 CNS, in the test with SK-MEL-2 melanoma, in the test with SN12C renal and in the test with SW-620 colon was more than 10 µM throughout.
Consider `CCOC(=O)c1c(SCCN(CC)CC)n(-c2ccccc2)c(=S)n(-c2ccccc2)c1=O`, for which the TGI in the test on A549 NSCLC worked out at 9.42 µM; in the test with DU-145 prostate, 3.06 µM; in the test with NCI-H23 lung, 44.6 µM; in the test with NCI-H522 lung, 3.67 µM; in the test on OVCAR-4 ovarian, 25.5 µM; with RPMI-8226 leukemia, 3.87 µM. Besides, the TGI with SF-539 CNS is 9.11 µM; in the test with SK-MEL-2 melanoma, 30.1 µM; in the test with SN12C renal it was 3.4 µM; in the test on SW-620 colon, more than 24.2 µM.
`O=C(CCc1ccccc1)NCCc1ccc(O)c(O)c1`: the TGI in the test on A549 NSCLC is more than 100 µM; in the test with DU-145 prostate, more than 100 µM; in the test with NCI-H23 lung, more than 100 µM; with NCI-H522 lung, 44 µM; with OVCAR-4 ovarian it was 46.7 µM; with RPMI-8226 leukemia, 59.4 µM. Besides, the TGI in the test on SF-539 CNS was more than 87.5 µM; in the test with SK-MEL-2 melanoma, 49.5 µM; in the test with SN12C renal it was more than 69.5 µM; with SW-620 colon it was more than 100 µM.
As for `CCCCSC1=N/C(=C\c2ccccc2O)C(Cl)=N1`, the TGI in the test with A549 NSCLC, in the test with DU-145 prostate, in the test on NCI-H23 lung, with NCI-H522 lung, with OVCAR-4 ovarian and with RPMI-8226 leukemia was more than 100 µM throughout. Besides, the TGI in the test on SF-539 CNS, in the test on SK-MEL-2 melanoma, in the test with SN12C renal and with SW-620 colon was more than 100 µM each time.
For the compound `CC1=C(C(=O)OC(C)(C)C)C(c2ccc([N+](=O)[O-])cc2)C(C(=O)OC(C)(C)C)=C(C)N1`, the TGI in the test with A549 NSCLC is 52.3 µM; with DU-145 prostate it was 62.4 µM; in the test on NCI-H23 lung, 45.3 µM; in the test with NCI-H522 lung it was 36.4 µM; in the test on OVCAR-4 ovarian it was 37.4 µM; in the test with RPMI-8226 leukemia it was 54 µM. For the same compound, the TGI was 34.9 µM with SF-539 CNS, 46.6 µM in the test with SK-MEL-2 melanoma, 35.4 µM in the test on SN12C renal and 54 µM in the test on SW-620 colon.
Consider `N#Cc1c(N)n(-c2nc3ccccc3s2)c(=O)c2cc([N+](=O)[O-])ccc12`, for which the TGI in the test with A549 NSCLC was more than 56.8 µM; with DU-145 prostate, more than 100 µM; in the test with NCI-H23 lung, 36.5 µM; in the test with NCI-H522 lung it was 25.6 µM; in the test on OVCAR-4 ovarian, more than 100 µM; in the test with RPMI-8226 leukemia it was more than 100 µM. Also, the TGI in the test on SF-539 CNS is 28 µM; in the test on SK-MEL-2 melanoma, 40.3 µM; in the test on SN12C renal, more than 100 µM; in the test with SW-620 colon it was more than 100 µM.
As to `FC(F)(Sc1nc2ccccc2[nH]1)c1nc2ccccc2o1`, the TGI in the test on A549 NSCLC is more than 100 µM; in the test on DU-145 prostate, more than 100 µM; with NCI-H23 lung it was more than 100 µM; with NCI-H522 lung it was 31.8 µM; in the test on OVCAR-4 ovarian it was more than 100 µM; in the test with RPMI-8226 leukemia it was more than 100 µM. Further, the TGI in the test with SF-539 CNS, with SK-MEL-2 melanoma, with SN12C renal and with SW-620 colon was more than 100 µM throughout.
`COc1ccc2c(C=O)c3n(c(=O)c2c1OC)CCc1cc2c(cc1-3)OCO2`: the TGI in the test on A549 NSCLC was more than 100 µM; in the test on DU-145 prostate, more than 100 µM; in the test on NCI-H23 lung, more than 100 µM; with NCI-H522 lung, more than 100 µM; in the test on OVCAR-4 ovarian, more than 100 µM; with RPMI-8226 leukemia, 30.5 µM. The TGI in the test with SF-539 CNS, with SK-MEL-2 melanoma, in the test with SN12C renal and with SW-620 colon was more than 100 µM throughout.
`CC(=O)Oc1c(OC(C)C)cc(=O)n2ccsc12`: the TGI in the test on A549 NSCLC, in the test with DU-145 prostate, with NCI-H23 lung, in the test with NCI-H522 lung, with OVCAR-4 ovarian and with RPMI-8226 leukemia was more than 100 µM each time. The TGI in the test with SF-539 CNS, in the test on SK-MEL-2 melanoma, in the test on SN12C renal and with SW-620 colon was more than 100 µM each time.
Take `Nc1c(/C=C/c2cc3cc(C4=NCCN4)ccc3o2)[nH]c2cc(C3=NCCN3)ccc12`: the TGI in the test with A549 NSCLC, in the test on DU-145 prostate, with NCI-H23 lung, with NCI-H522 lung, in the test on OVCAR-4 ovarian and in the test on RPMI-8226 leukemia was more than 100 µM in each case. Further, the TGI in the test with SF-539 CNS, in the test on SK-MEL-2 melanoma, in the test on SN12C renal and in the test on SW-620 colon was more than 100 µM in each case.
Take `CCCCN1/C(=N/Nc2n[nH]c(=O)c3ccccc23)SCC1c1ccc(Cl)cc1` (stereo not given): the TGI in the test on A549 NSCLC is more than 100 µM; in the test on DU-145 prostate, more than 100 µM; with NCI-H23 lung, 14.7 µM; in the test on NCI-H522 lung, 37.1 µM; in the test with OVCAR-4 ovarian it was more than 100 µM; with RPMI-8226 leukemia it was more than 100 µM. Also, the TGI in the test with SF-539 CNS was 33.1 µM; with SK-MEL-2 melanoma, 56.4 µM; with SN12C renal it was more than 100 µM; in the test on SW-620 colon it was 53 µM.
On to `Nc1nc(Nc2cc(F)c(Cl)c(F)c2)cc(=O)[nH]1`, for which the TGI in the test with A549 NSCLC, in the test with DU-145 prostate, in the test with NCI-H23 lung, in the test on NCI-H522 lung, in the test with OVCAR-4 ovarian and in the test on RPMI-8226 leukemia was more than 100 µM throughout. The TGI in the test with SF-539 CNS, in the test on SK-MEL-2 melanoma, in the test with SN12C renal and in the test on SW-620 colon was more than 100 µM each time.
For the compound `COc1c(-c2nc3nc(N4CCN(C)CC4)ccc3[nH]2)cc(OC)c2c1nc(CCl)n2C`, the TGI amounted to 79.6 µM in the test with A549 NSCLC; 78.2 µM with DU-145 prostate; 47 µM with NCI-H23 lung; 25.5 µM with NCI-H522 lung; 44.3 µM in the test with OVCAR-4 ovarian; 43.1 µM in the test with RPMI-8226 leukemia. Moreover, the TGI with SF-539 CNS was 20.7 µM; in the test on SK-MEL-2 melanoma, 29.3 µM; in the test on SN12C renal, more than 100 µM; in the test with SW-620 colon, 64.3 µM.
For `COc1ccc(/[N+]([O-])=C/c2ccccc2OC(=S)S)cc1`, the TGI in the test on A549 NSCLC is more than 100 µM; in the test with DU-145 prostate it was more than 100 µM; with NCI-H23 lung, 85.5 µM; in the test with NCI-H522 lung, 74 µM; in the test on OVCAR-4 ovarian it was more than 100 µM; with RPMI-8226 leukemia it was 61 µM. Further, the TGI in the test on SF-539 CNS is 52 µM; in the test on SK-MEL-2 melanoma it was 65.7 µM; in the test on SN12C renal, 56.9 µM; in the test with SW-620 colon, more than 100 µM.
For the compound `O=C1C[C@@]23CCC4(CC2=CCC[C@H]3O1)OCCO4`, the TGI with A549 NSCLC, in the test on DU-145 prostate, in the test with NCI-H23 lung, in the test on NCI-H522 lung, in the test on OVCAR-4 ovarian and with RPMI-8226 leukemia was more than 100 µM throughout. Moreover, the TGI with SF-539 CNS, with SK-MEL-2 melanoma, in the test with SN12C renal and with SW-620 colon was more than 100 µM throughout.
For the compound `COc1cc(CC2C(=O)OCC2Cc2ccc(OC)c(OC)c2)ccc1O` (stereo not given), the TGI in the test on A549 NSCLC, in the test with DU-145 prostate, in the test with NCI-H23 lung, in the test with NCI-H522 lung, with OVCAR-4 ovarian and in the test on RPMI-8226 leukemia was more than 100 µM in each case. Besides, the TGI in the test with SF-539 CNS, in the test with SK-MEL-2 melanoma, in the test on SN12C renal and in the test on SW-620 colon was more than 100 µM each time.
As for `Nc1nc(N)c2ncn(Cc3ccccc3)c2n1`, the TGI with A549 NSCLC, with DU-145 prostate, in the test with NCI-H23 lung, in the test on NCI-H522 lung, in the test on OVCAR-4 ovarian and in the test on RPMI-8226 leukemia was more than 100 µM throughout. In addition, the TGI with SF-539 CNS, with SK-MEL-2 melanoma, in the test with SN12C renal and in the test with SW-620 colon was more than 100 µM in each case.

Values taken from PubChem BioAssay (NCI).
